Experimental data: the kinase profiling compilation of Christmann-Franck et al. (2016)

What was measured:
Assay in all cases: KINOMEscan competition binding
Details in all cases: compound 10.0 µM
ACVR1 (human) = ACVR1 (human) (UniProt Q04771)
ACVR1B (human) = ACVR1B (human) (UniProt P36896)
ACVR2A (human) = ACVR2A (human) (UniProt P27037)
AKT2 (human) = AKT2 (human) (UniProt P31751)
ALK (human) = ALK (human) (UniProt Q9UM73)
AURKB (human) = AURKB (human) (UniProt Q96GD4)
BMPR1A (human) = BMPR1A (human) (UniProt P36894)
CAMKK2 (human) = CAMKK2 (human) (UniProt Q96RR4)
CDK5 (human) = CDK5 (human) (UniProt Q00535)
CHUK (human) = CHUK (human) (UniProt O15111)
DMPK (human) = DMPK (human) (UniProt Q09013)
DMPK (human), sequence (Q09013 whole entry, looked up): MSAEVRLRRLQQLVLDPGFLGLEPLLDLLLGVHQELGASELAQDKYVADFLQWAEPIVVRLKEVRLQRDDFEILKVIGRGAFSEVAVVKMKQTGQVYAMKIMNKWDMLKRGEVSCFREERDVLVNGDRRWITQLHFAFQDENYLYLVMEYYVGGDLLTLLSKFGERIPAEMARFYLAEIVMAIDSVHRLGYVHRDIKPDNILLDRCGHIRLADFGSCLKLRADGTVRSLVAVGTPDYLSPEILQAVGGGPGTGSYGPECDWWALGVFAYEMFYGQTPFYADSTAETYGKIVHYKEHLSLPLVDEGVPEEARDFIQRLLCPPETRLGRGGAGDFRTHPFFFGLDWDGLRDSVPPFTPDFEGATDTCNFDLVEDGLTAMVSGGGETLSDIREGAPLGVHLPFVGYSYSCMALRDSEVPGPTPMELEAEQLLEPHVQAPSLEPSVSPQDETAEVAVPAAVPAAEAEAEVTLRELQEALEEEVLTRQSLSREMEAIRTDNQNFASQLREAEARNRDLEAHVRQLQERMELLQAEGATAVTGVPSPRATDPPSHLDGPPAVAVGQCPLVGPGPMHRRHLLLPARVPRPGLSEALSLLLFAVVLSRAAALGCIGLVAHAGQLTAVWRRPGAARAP

DYRK1A (human) = DYRK1A (human) (UniProt Q13627)
ERBB3 (human) = ERBB3 (human) (UniProt P21860)
FGFR1 (human) = FGFR1 (human) (UniProt P11362)
FLT3 (human) = FLT3 (human) (UniProt P36888)
FLT3 (human), sequence (P36888 whole entry, looked up): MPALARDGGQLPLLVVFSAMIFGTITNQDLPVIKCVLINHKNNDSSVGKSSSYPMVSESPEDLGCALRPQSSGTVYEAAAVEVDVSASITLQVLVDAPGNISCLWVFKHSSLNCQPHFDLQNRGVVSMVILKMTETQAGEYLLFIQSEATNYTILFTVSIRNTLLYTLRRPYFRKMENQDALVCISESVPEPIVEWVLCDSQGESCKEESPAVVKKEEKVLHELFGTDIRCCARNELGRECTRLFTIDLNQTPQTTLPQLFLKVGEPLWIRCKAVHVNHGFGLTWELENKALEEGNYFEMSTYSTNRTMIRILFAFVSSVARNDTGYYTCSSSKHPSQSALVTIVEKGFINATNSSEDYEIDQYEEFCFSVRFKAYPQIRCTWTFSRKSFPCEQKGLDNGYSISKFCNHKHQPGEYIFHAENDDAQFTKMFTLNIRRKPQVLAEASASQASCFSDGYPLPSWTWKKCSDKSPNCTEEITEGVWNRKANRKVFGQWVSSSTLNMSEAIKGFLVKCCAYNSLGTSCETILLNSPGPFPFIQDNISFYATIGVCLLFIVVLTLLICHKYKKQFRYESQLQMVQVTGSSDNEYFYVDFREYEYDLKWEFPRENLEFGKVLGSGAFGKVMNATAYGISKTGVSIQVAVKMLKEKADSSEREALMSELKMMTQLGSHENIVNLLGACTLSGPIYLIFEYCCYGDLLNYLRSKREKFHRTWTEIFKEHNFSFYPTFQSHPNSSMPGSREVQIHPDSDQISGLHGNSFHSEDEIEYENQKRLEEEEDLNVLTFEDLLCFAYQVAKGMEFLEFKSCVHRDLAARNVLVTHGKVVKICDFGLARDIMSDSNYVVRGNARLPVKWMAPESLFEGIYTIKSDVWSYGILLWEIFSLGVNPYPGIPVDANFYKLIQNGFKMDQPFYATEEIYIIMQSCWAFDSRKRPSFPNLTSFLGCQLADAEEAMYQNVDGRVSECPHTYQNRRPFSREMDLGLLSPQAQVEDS

GAK (human) = GAK (human) (UniProt O14976)
GSK3B (human) = GSK3B (human) (UniProt P49841)
GSK3B (human), sequence (P49841 whole entry, looked up): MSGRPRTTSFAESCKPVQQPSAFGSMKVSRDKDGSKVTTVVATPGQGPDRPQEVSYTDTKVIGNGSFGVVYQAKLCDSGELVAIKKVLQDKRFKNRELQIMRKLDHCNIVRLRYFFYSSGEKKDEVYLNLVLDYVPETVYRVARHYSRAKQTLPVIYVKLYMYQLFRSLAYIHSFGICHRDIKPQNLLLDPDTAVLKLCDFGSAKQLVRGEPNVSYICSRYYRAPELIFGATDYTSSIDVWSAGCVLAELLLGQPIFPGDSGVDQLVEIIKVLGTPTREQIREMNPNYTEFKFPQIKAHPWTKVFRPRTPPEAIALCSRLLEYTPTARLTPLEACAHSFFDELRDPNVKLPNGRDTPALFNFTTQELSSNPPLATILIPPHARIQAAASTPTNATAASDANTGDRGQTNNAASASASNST

HIPK3 (human) = HIPK3 (human) (UniProt Q9H422)
INSR (human) = INSR (human) (UniProt P06213)
[1] = target: JAK1 JH1 catalytic (human) (UniProt P23458)
LATS2 (human) = LATS2 (human) (UniProt Q9NRM7)
MAP3K1 (human) = MAP3K1 (human) (UniProt Q13233)
MAP3K5 (human) = MAP3K5 (human) (UniProt Q99683)
MST4 (human) = MST4 (human) (UniProt Q9P289)
MST4 (human), sequence (Q9P289 whole entry, looked up): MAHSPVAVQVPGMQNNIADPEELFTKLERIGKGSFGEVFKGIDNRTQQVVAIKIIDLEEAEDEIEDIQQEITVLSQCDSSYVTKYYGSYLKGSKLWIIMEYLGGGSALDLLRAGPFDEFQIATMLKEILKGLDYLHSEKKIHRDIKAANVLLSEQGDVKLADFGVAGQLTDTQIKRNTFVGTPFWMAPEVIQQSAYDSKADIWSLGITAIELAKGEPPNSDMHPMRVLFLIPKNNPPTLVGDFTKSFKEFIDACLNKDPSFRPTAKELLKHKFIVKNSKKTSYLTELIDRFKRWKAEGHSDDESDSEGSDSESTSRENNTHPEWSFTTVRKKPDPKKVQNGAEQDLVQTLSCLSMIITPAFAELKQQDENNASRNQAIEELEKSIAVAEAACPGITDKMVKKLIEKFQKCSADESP

NUAK1 (human) = NUAK1 (human) (UniProt O60285)
PAK3 (human) = PAK3 (human) (UniProt O75914)
PAK4 (human) = PAK4 (human) (UniProt O96013)
PIM1 (human) = PIM1 (human) (UniProt P11309)
PIM1 (human), sequence (P11309 whole entry, looked up): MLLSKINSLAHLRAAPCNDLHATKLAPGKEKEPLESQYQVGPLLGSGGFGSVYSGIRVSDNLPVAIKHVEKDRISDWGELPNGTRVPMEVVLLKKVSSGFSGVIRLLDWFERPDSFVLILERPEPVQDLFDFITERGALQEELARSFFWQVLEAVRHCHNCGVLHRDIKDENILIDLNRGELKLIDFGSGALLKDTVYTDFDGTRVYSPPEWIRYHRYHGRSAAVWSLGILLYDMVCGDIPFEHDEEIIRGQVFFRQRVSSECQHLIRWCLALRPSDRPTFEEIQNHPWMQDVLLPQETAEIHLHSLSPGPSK

PLK3 (human) = PLK3 (human) (UniProt Q9H4B4)
PLK4 (human) = PLK4 (human) (UniProt O00444)
PRKCE (human) = PRKCE (human) (UniProt Q02156)
PRKCH (human) = PRKCH (human) (UniProt P24723)
PRKD3 (human) = PRKD3 (human) (UniProt O94806)
PRKD3 (human), sequence (O94806 whole entry, looked up): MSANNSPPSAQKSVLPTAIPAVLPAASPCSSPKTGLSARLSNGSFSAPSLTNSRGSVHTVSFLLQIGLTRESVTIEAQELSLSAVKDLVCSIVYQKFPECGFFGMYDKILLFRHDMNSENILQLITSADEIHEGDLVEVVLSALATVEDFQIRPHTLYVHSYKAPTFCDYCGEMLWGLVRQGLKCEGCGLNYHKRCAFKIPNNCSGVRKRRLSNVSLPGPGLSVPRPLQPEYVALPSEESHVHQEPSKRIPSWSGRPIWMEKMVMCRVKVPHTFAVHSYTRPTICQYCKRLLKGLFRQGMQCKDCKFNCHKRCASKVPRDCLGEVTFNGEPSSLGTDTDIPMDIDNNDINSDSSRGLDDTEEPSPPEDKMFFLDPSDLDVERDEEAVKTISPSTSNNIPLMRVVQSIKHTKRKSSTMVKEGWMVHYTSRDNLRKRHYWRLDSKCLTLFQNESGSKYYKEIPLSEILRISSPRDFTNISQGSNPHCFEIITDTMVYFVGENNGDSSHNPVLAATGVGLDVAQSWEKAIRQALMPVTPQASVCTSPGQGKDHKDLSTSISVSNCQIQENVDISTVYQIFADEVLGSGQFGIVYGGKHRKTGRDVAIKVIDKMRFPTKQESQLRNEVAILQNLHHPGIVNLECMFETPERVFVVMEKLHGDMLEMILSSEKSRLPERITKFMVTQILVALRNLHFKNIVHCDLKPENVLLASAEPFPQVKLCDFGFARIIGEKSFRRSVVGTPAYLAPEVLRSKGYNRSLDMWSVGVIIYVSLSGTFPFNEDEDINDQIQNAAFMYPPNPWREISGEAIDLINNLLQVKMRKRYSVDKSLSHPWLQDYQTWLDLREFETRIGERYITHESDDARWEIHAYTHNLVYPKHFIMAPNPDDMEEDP

RIPK4 (human) = RIPK4 (human) (UniProt P57078)
RPS6KA2 KD1 (human) = RPS6KA2 KD1 (human) (UniProt Q15349)
SIK1 (human) = SIK1 (human) (UniProt P57059)
TNIK (human) = TNIK (human) (UniProt Q9UKE5)

AURKB (human), sequence (Q96GD4 whole entry, looked up): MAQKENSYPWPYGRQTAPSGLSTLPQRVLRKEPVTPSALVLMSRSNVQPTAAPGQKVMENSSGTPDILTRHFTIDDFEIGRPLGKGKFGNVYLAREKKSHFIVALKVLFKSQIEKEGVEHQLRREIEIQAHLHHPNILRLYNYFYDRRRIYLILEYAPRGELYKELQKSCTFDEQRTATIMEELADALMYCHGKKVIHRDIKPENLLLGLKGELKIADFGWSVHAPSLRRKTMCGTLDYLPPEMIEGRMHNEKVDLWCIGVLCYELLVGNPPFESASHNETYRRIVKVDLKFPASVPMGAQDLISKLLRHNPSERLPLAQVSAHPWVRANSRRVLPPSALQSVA
AKT2 (human), sequence (P31751 whole entry, looked up): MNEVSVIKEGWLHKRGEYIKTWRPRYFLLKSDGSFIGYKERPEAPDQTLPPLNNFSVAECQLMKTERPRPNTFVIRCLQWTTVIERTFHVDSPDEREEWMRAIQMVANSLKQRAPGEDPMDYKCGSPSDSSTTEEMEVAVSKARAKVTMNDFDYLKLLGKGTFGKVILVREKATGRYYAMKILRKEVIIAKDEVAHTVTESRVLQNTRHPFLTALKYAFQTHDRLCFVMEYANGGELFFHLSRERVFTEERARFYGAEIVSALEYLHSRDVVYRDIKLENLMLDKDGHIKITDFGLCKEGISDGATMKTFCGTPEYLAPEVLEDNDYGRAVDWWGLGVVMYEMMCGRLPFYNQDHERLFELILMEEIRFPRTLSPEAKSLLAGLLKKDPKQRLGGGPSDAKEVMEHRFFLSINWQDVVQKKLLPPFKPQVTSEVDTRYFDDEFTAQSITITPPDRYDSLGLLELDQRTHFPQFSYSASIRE
ACVR2A (human), sequence (P27037 whole entry, looked up): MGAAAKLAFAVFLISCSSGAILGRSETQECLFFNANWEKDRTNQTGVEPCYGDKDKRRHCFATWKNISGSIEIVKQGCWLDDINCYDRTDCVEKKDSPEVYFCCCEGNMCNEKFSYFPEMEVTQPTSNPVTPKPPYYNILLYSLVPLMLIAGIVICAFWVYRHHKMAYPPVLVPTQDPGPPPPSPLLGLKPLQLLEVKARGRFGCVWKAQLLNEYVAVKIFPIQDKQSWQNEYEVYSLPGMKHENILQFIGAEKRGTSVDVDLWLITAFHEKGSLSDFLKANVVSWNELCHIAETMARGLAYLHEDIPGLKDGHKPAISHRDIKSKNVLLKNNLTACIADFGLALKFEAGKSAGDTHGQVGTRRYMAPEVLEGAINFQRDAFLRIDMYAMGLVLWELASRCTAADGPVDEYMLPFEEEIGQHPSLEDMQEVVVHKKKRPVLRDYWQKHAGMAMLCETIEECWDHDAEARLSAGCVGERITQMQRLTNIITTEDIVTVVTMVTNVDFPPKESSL

CS(=O)(=O)N1CCN(Cc2cc3nc(-c4cccc5[nH]ncc45)nc(N4CCOCC4)c3s2)CC1
kinase still bound, per cent of control (ACVR1 (human)): 100% | kinase still bound, per cent of control (ACVR1B (human)): 100% | kinase still bound, per cent of control (ACVR2A (human)): 100% | kinase still bound, per cent of control (AKT2 (human)): 100% | kinase still bound, per cent of control (ALK (human)): 100% | kinase still bound, per cent of control (AURKB (human)): 100% | kinase still bound, per cent of control (BMPR1A (human)): 100% | kinase still bound, per cent of control (CAMKK2 (human)): 100% | kinase still bound, per cent of control (CDK5 (human)): 100% | kinase still bound, per cent of control (CHUK (human)): 100% | kinase still bound, per cent of control (DMPK (human)): 100% | kinase still bound, per cent of control (DYRK1A (human)): 100% | kinase still bound, per cent of control (ERBB3 (human)): 100% | kinase still bound, per cent of control (FGFR1 (human)): 100% | kinase still bound, per cent of control (FLT3 (human)): 100% | kinase still bound, per cent of control (GAK (human)): 100% | kinase still bound, per cent of control (GSK3B (human)): 100% | kinase still bound, per cent of control (HIPK3 (human)): 100% | kinase still bound, per cent of control (INSR (human)): 100% | kinase still bound, per cent of control [1]: 100% | kinase still bound, per cent of control (LATS2 (human)): 100% | kinase still bound, per cent of control (MAP3K1 (human)): 100% | kinase still bound, per cent of control (MAP3K5 (human)): 100% | kinase still bound, per cent of control (MST4 (human)): 100% | kinase still bound, per cent of control (NUAK1 (human)): 100% | kinase still bound, per cent of control (PAK3 (human)): 100% | kinase still bound, per cent of control (PAK4 (human)): 100% | kinase still bound, per cent of control (PIM1 (human)): 100% | kinase still bound, per cent of control (PLK3 (human)): 100% | kinase still bound, per cent of control (PLK4 (human)): 100% | kinase still bound, per cent of control (PRKCE (human)): 100% | kinase still bound, per cent of control (PRKCH (human)): 100% | kinase still bound, per cent of control (PRKD3 (human)): 100% | kinase still bound, per cent of control (RIPK4 (human)): 100% | kinase still bound, per cent of control (RPS6KA2 KD1 (human)): 100% | kinase still bound, per cent of control (SIK1 (human)): 100% | kinase still bound, per cent of control (TNIK (human)): 100%

COc1cc(N2CCN(C)CC2)ccc1Nc1ncc2c(n1)N(C)c1ccccc1C(=O)N2C
kinase still bound, per cent of control (ACVR1 (human)): 100% | kinase still bound, per cent of control (ACVR1B (human)): 100% | kinase still bound, per cent of control (ACVR2A (human)): 100% | kinase still bound, per cent of control (AKT2 (human)): 100% | kinase still bound, per cent of control (ALK (human)): 16% | kinase still bound, per cent of control (AURKB (human)): 100% | kinase still bound, per cent of control (BMPR1A (human)): 100% | kinase still bound, per cent of control (CAMKK2 (human)): 15% | kinase still bound, per cent of control (CDK5 (human)): 100% | kinase still bound, per cent of control (CHUK (human)): 100% | kinase still bound, per cent of control (DMPK (human)): 100% | kinase still bound, per cent of control (DYRK1A (human)): 100% | kinase still bound, per cent of control (ERBB3 (human)): 100% | kinase still bound, per cent of control (FGFR1 (human)): 100% | kinase still bound, per cent of control (FLT3 (human)): 100% | kinase still bound, per cent of control (GAK (human)): 9.8% | kinase still bound, per cent of control (GSK3B (human)): 100% | kinase still bound, per cent of control (HIPK3 (human)): 100% | kinase still bound, per cent of control (INSR (human)): 100% | kinase still bound, per cent of control [1]: 100% | kinase still bound, per cent of control (LATS2 (human)): 100% | kinase still bound, per cent of control (MAP3K1 (human)): 100% | kinase still bound, per cent of control (MAP3K5 (human)): 100% | kinase still bound, per cent of control (MST4 (human)): 100% | kinase still bound, per cent of control (NUAK1 (human)): 7.6% | kinase still bound, per cent of control (PAK3 (human)): 100% | kinase still bound, per cent of control (PAK4 (human)): 100% | kinase still bound, per cent of control (PIM1 (human)): 100% | kinase still bound, per cent of control (PLK3 (human)): 100% | kinase still bound, per cent of control (PLK4 (human)): 6.8% | kinase still bound, per cent of control (PRKCE (human)): 100% | kinase still bound, per cent of control (PRKCH (human)): 100% | kinase still bound, per cent of control (PRKD3 (human)): 5.4% | kinase still bound, per cent of control (RIPK4 (human)): 100% | kinase still bound, per cent of control (RPS6KA2 KD1 (human)): 100% | kinase still bound, per cent of control (SIK1 (human)): 100% | kinase still bound, per cent of control (TNIK (human)): 100%

CCN(CC)CCCCNc1ncc2c(n1)N(C)C(=O)N(c1c(Cl)c(OC)cc(OC)c1Cl)C2
kinase still bound, per cent of control (ACVR1 (human)): 100% | kinase still bound, per cent of control (ACVR1B (human)): 100% | kinase still bound, per cent of control (ACVR2A (human)): 100% | kinase still bound, per cent of control (AKT2 (human)): 100% | kinase still bound, per cent of control (ALK (human)): 100% | kinase still bound, per cent of control (AURKB (human)): 100% | kinase still bound, per cent of control (BMPR1A (human)): 100% | kinase still bound, per cent of control (CAMKK2 (human)): 100% | kinase still bound, per cent of control (CDK5 (human)): 100% | kinase still bound, per cent of control (CHUK (human)): 100% | kinase still bound, per cent of control (DMPK (human)): 100% | kinase still bound, per cent of control (DYRK1A (human)): 100% | kinase still bound, per cent of control (ERBB3 (human)): 100% | kinase still bound, per cent of control (FGFR1 (human)): 0.25% | kinase still bound, per cent of control (FLT3 (human)): 100% | kinase still bound, per cent of control (GAK (human)): 100% | kinase still bound, per cent of control (GSK3B (human)): 100% | kinase still bound, per cent of control (HIPK3 (human)): 100% | kinase still bound, per cent of control (INSR (human)): 100% | kinase still bound, per cent of control [1]: 100% | kinase still bound, per cent of control (LATS2 (human)): 100% | kinase still bound, per cent of control (MAP3K1 (human)): 100% | kinase still bound, per cent of control (MAP3K5 (human)): 100% | kinase still bound, per cent of control (MST4 (human)): 11% | kinase still bound, per cent of control (NUAK1 (human)): 100% | kinase still bound, per cent of control (PAK3 (human)): 100% | kinase still bound, per cent of control (PAK4 (human)): 100% | kinase still bound, per cent of control (PIM1 (human)): 100% | kinase still bound, per cent of control (PLK3 (human)): 100% | kinase still bound, per cent of control (PLK4 (human)): 100% | kinase still bound, per cent of control (PRKCE (human)): 100% | kinase still bound, per cent of control (PRKCH (human)): 100% | kinase still bound, per cent of control (PRKD3 (human)): 100% | kinase still bound, per cent of control (RIPK4 (human)): 100% | kinase still bound, per cent of control (RPS6KA2 KD1 (human)): 100% | kinase still bound, per cent of control (SIK1 (human)): 100% | kinase still bound, per cent of control (TNIK (human)): 100%
